Experiments:
Type in all cases: cell-based
[1] = tested on: human small cell lung carcinoma (NYH); assay: Inhibition of tumour cell proliferation in vitro, NYH ([3H]thymidine incorporation); conditions: human NYH cells, 24 hours, DNA synthesis by [3H]thymidine incorporation
Procedure: (§1) The inhibition of tumour cell proliferation was studied using different types of human cancer cell lines. The cell lines under investigation were small cell lung carcinoma (NYH), non small cell lung carcinoma (NCI-H460), and breast cancer (MCF-7) using the following general procedure:
(§2) The cells were cultured in vitro for 24 hours in the presence of the compound under investigation. DNA synthesis was measured by incorporation of [3H]thymidine, and the median inhibitory concentrations (IC50) of the compounds were calculated.

[2] = tested on: human breast cancer (MCF-7); assay: Inhibition of tumour cell proliferation in vitro, MCF-7 ([3H]thymidine incorporation); conditions: MCF7, human MCF-7 cells, 24 hours, DNA synthesis by [3H]thymidine incorporation
Procedure: as §1, §2

[3] = tested on: human non small cell lung cancer (NCI-H460); assay: Inhibition of tumour cell proliferation in vitro, NCI-H460 ([3H]thymidine incorporation); conditions: human NCI-H460 cells, 24 hours, DNA synthesis by [3H]thymidine incorporation
Procedure: as §1, §2

Compound	IC50 [1] [nM]	IC50 [2] [nM]	IC50 [3] [nM]
N#CNC(=Nc1ccncc1)NCCCCCCCCCCCOc1ccccc1 [Example No. 1, N-Cyano-N'-(11-phenoxyundecyl)-N"-4-pyridylguanidine]	4.5	21	
N#CNC(=Nc1ccncc1)NCCCCCCCCCCOc1ccccc1 [Example No. 3, N-Cyano-N'-(10-phenoxydecyl)-N"-4pyridylguanidine]	5.9	13	49
N#CNC(=Nc1ccncc1)NCCCCCCCCCOc1ccccc1 [Example No. 4, N-Cyano-N'-(9-phenoxynonyl)-N"-4-pyridylguanidine]	5.3	18	43

More lines, now with the values ahead:

IC50 [1] [nM]	IC50 [2] [nM]	IC50 [3] [nM]	Compound
380	920	> 1000	N#CN=C(NCCCCOc1ccccc1)Nc1ccncc1 [Prior art A, NCyano-N(4-phenoxybutyl)-N4-pyridylguanidine, reference compound]
45	250	67	N#CN=C(NCCCCCOc1ccccc1)Nc1ccncc1 [Prior art B, NCyano-N(5-phenoxypentyl)-N4-pyridylguanidine, reference compound]

Source: patent publication US6121297A, “Cyanoguanidines as cell proliferation inhibitors” (Leo Pharmaceutical Products Ltd. A/S, priority 1997, dated 2000)
